According to patent US12503438B2, “Compounds for the treatment of kinase-dependent disorders” (Exelixis, Inc., priority 2019, dated 2025):

How the values were obtained:
AXL = target: T1, AXL (Homo sapiens, UniProt P30530); assay: AXL autophosphorylation ELISA in A-172 cells; type: cell-based; settings: cellular activity, Gas6-stimulated, phospho-AXL ELISA
T1 construct: endogenous in cells; host or cells: A-172 glioblastoma cells (ATCC #CRL-1620)
T1 sequence (P30530 26-894): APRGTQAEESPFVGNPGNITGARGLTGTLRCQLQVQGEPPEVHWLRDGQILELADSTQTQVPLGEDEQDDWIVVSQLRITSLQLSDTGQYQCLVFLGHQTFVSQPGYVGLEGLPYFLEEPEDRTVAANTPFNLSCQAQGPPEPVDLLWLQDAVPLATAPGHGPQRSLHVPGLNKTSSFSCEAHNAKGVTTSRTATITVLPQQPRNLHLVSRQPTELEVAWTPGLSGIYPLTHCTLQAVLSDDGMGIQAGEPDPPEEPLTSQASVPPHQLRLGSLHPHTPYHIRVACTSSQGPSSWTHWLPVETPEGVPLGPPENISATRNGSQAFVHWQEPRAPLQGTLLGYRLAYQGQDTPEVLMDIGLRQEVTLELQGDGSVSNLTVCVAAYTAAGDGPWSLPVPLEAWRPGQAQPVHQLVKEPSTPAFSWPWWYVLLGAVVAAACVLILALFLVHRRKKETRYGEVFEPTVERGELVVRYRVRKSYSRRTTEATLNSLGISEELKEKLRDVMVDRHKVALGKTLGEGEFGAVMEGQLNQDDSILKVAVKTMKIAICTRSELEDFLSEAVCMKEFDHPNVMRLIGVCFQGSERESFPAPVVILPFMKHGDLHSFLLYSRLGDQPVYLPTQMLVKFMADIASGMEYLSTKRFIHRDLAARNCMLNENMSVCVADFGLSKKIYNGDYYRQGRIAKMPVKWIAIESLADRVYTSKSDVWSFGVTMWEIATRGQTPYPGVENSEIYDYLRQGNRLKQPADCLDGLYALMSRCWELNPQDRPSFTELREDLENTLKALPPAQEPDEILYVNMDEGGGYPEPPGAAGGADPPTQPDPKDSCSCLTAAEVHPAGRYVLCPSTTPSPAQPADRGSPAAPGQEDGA
Procedure, shortened: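 Serum-starved (24 h) A-172 glioblastoma cells got an 8-point compound series (0.3% DMSO) for 1 h, then 1 μg/mL human Gas6 for 15 min. Lysate phospho-AXL quantified by ELISA against phospho-AXL standard, normalized to DMSO and reference-inhibitor controls; IC50 by 4-parameter logistic fit.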

Met = Met (Homo sapiens, UniProt P08581); assay: Human Met kinase assay (33P-phosphoryl transfer radiometric, KinaseProfiler); parameters: Human Met (residues R974-S1390 with A1209G and V1290L, 3.4 nM); purchased Eurofins Pharma Discovery Services UK Limited (KinaseProfiler service); settings: biochemical activity; 10 μM ATP; read-out: c-Met IC50
Protocol: Kinase activity and compound inhibition were investigated using the ^33P-Phosphoryl transfer radiometric kinase assay, performed using the KinaseProfiler™ service of Eurofins Pharma Discovery Services UK Limited. Dose-response experiments were performed using nine compound concentrations in a 96-well microtiter plate. For each assay, all compounds were prepared to a 50× final assay concentration (50 μM) in 100% DMSO, then diluted in a half-log series, with the final top concentration at 1 μM. This working stock of the compound was added to the assay well as the first component in the reaction, followed by the remaining components as detailed in the following assay protocols below. The positive control wells (100% kinase activity) contain all components of the reaction including 2% DMSO (control for solvent effects), except the compound of interest. Blank wells contain all components of the reaction, with the reference inhibitor, staurosporine. This reference compound was used to abolish kinase activity and generated the 0% kinase activity base-line. IC50 values were calculated by nonlinear regression analysis using the sigmoidal dose-response (variable slope) curve fit on XLFit version 5.3 (ID Business Solutions).
Human Met (residues R974-S1390 with A1209G and V1290L, 3.4 nM) was incubated with 8 mM MOPS pH 7.0, 0.2 mM EDTA, 250 μM KKKGQEEEYVFIE, 1 mM sodium orthovanadate, 5 mM […], 10 mM magnesium acetate, and 10 μM [γ-^33P-ATP]. The reaction was initiated by the addition of the Mg/ATP mix. After incubation for 40 minutes at room temperature, the reaction was stopped by the addition of phosphoric acid to a concentration of 0.5%. A reaction aliquot of 10 μL was then spotted onto a P30 filtermat and washed four times for 4 minutes in 0.425% phosphoric acid and once in methanol prior to drying and scintillation counting. Incorporated ^33P was measured using the Wallac Microbeta scintillation counter (Perkin Elmer).

Met, sequence (P08581 974-1390): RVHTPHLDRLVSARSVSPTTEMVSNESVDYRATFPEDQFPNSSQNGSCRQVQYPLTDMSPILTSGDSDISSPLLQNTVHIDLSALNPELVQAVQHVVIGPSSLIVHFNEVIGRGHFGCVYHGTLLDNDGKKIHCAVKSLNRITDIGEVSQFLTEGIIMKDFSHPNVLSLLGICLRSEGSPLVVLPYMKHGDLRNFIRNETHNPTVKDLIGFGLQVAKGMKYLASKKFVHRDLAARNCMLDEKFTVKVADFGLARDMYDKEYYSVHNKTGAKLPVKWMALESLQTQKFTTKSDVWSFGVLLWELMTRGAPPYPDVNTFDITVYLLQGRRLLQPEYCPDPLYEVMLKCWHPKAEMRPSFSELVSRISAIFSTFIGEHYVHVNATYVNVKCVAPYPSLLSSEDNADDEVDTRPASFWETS

| IC50 (AXL) | IC50 (Met) | SMILES |
| --- | --- | --- |
| > 300 nM | 10 to 100 nM | C[Si](C)(C)C#Cc1ccc2c(Oc3ccc(NC(=O)C4(C(=O)Nc5ccc(F)cc5)CC4)cc3)ccnc2c1 [Compound 63, 1-N′-(4-Fluorophenyl)-1-N-[4-[7-(2-trimethylsilylethynyl)quinolin-4-yl]oxyphenyl]cyclopropane-1,1-dicarboxamide] |
| 10 to 100 nM | ≤ 10 nM | O=C(Nc1ccc(F)cc1)C1(C(=O)Nc2ccc(Oc3ccnc4cc(-c5nnco5)ccc34)cc2)CC1 [Compound 73, 1-N′-(4-Fluorophenyl)-1-N-[4-[7-(1,3,4-oxadiazol-2-yl)quinolin-4-yl]oxyphenyl]cyclopropane-1,1-dicarboxamide] |
| ≤ 10 nM | ≤ 10 nM | CC(=O)N1CCC(n2cc(-c3ccc4c(Oc5ccc(NC(=O)C6(C(=O)Nc7ccc(F)cc7)CC6)cc5)ccnc4c3)cn2)CC1 [Compound 62, 1-N-[4-[7-[1-(1-Acetylpiperidin-4-yl)pyrazol-4-yl]quinolin-4-yl]oxyphenyl]-1-N′-(4-fluorophenyl)cyclopropane-1,1-dicarboxamide] |
| ≤ 10 nM | ≤ 10 nM | Cn1cnc(-c2ccc3c(Oc4ccc(NC(=O)C5(C(=O)Nc6ccc(F)cc6)CC5)cc4)ccnc3c2)c1 [Compound 69, 1-N′-(4-Fluorophenyl)-1-N-[4-[7-(1-methylimidazol-4-yl)quinolin-4-yl]oxyphenyl]cyclopropane-1,1-dicarboxamide] |
| ≤ 10 nM | ≤ 10 nM | CCn1cc(-c2ccc3c(Oc4ccc(NC(=O)C5(C(=O)Nc6ccc(F)cc6)CC5)cc4)ccnc3c2)cn1 [Compound 20, 1-N-[4-[7-(1-Ethylpyrazol-4-yl)quinolin-4-yl]oxyphenyl]-1-N′-(4-fluorophenyl)cyclopropane-1,1-dicarboxamide] |
| 100 to 300 nM | 10 to 100 nM | Cc1noc(C)c1-c1ccc2c(Oc3ccc(NC(=O)C4(C(=O)Nc5ccc(F)cc5)CC4)cc3)ccnc2c1 [Compound 53, 1-N-[4-[7-(3,5-Dimethyl-1,2-oxazol-4-yl)quinolin-4-yl]oxyphenyl]-1-N′-(4-fluorophenyl)cyclopropane-1,1-dicarboxamide] |
| ≤ 10 nM | ≤ 10 nM | O=C(Nc1ccc(F)cc1)C1(C(=O)Nc2ccc(Oc3ccnc4cc(-c5cnn(C6COC6)c5)ccc34)cc2)CC1 [Compound 24, 1-N′-(4-Fluorophenyl)-1-N-[4-[7-[1-(oxetan-3-yl)pyrazol-4-yl]quinolin-4-yl]oxyphenyl]cyclopropane-1,1-dicarboxamide] |
| 10 to 100 nM | ≤ 10 nM | O=C(Nc1ccc(F)cc1)C1(C(=O)Nc2ccc(Oc3ccnc4cc(-c5cnc[nH]5)ccc34)cc2)CC1 [Compound 72, 1-N′-(4-Fluorophenyl)-1-N-[4-[7-(1H-imidazol-5-yl)quinolin-4-yl]oxyphenyl]cyclopropane-1,1-dicarboxamide] |
| 10 to 100 nM | ≤ 10 nM | O=C(Nc1ccc(F)cc1)C1(C(=O)Nc2ccc(Oc3ccnc4cc(-c5cnn(C6CC6)c5)ccc34)cc2)CC1 [Compound 22, 1-N-[4-[7-(1-Cyclopropylpyrazol-4-yl)quinolin-4-yl]oxyphenyl]-1-N′-(4-fluorophenyl)cyclopropane-1,1-dicarboxamide] |
| ≤ 10 nM | ≤ 10 nM | O=C(Nc1ccc(F)cc1)C1(C(=O)Nc2ccc(Oc3ccnc4cc(-c5cnn(CCN6CCOCC6)c5)ccc34)cc2)CC1 [Compound 19, 1-N′-(4-Fluorophenyl)-1-N-[4-[7-[1-(2-morpholin-4-ylethyl)pyrazol-4-yl]quinolin-4-yl]oxyphenyl]cyclopropane-1,1-dicarboxamide] |
| ≤ 10 nM | ≤ 10 nM | Cn1cc(-c2ccc3c(Oc4ccc(NC(=O)C5(C(=O)Nc6ccc(F)cc6)CC5)cc4)ccnc3c2)cn1 [Compound 11, 1-N′-(4-Fluorophenyl)-1-N-[4-[7-(1-methylpyrazol-4-yl)quinolin-4-yl]oxyphenyl]cyclopropane-1,1-dicarboxamide] |
| > 300 nM | 100 to 1000 nM | CN(C(=O)C1(C(=O)Nc2ccc(Oc3ccnc4cc(-c5cnn(C)c5)ccc34)cc2)CC1)c1ccc(F)cc1 [Compound 82A, 1-N′-(4-Fluorophenyl)-1-N′-methyl-1-N-[4-[7-(1-methylpyrazol-4-yl)quinolin-4-yl]oxyphenyl]cyclopropane-1,1-dicarboxamide] |
| ≤ 10 nM | ≤ 10 nM | CN1CCC(n2cc(-c3ccc4c(Oc5ccc(NC(=O)C6(C(=O)Nc7ccc(F)cc7)CC6)cc5)ccnc4c3)cn2)CC1 [Compound 61, 1-N′-(4-Fluorophenyl)-1-N-[4-[7-[1-(1-methylpiperidin-4-yl)pyrazol-4-yl]quinolin-4-yl]oxyphenyl]cyclopropane-1,1-dicarboxamide] |
| ≤ 10 nM | ≤ 10 nM | CS(=O)(=O)n1cc(-c2ccc3c(Oc4ccc(NC(=O)C5(C(=O)Nc6ccc(F)cc6)CC5)cc4)ccnc3c2)cn1 [Compound 79, 1-N′-(4-Fluorophenyl)-1-N-[4-[7-(1-methylsulfonylpyrazol-4-yl)quinolin-4-yl]oxyphenyl]cyclopropane-1,1-dicarboxamide] |
| > 300 nM | ≤ 10 nM | C#Cc1ccc2c(Oc3ccc(NC(=O)C4(C(=O)Nc5ccc(F)cc5)CC4)cc3)ccnc2c1 [Compound 64, 1-N-[4-(7-Ethynylquinolin-4-yl)oxyphenyl]-1-N′-(4-fluorophenyl)cyclopropane-1,1-dicarboxamide] |
| > 300 nM | 100 to 1000 nM | O=C(Nc1ccc(F)cc1)C1(C(=O)Nc2ccc(Oc3ccnc4cc(-c5cnn[nH]5)ccc34)cc2)CC1 [Compound 65, 1-N′-(4-Fluorophenyl)-1-N-[4-[7-(1H-triazol-5-yl)quinolin-4-yl]oxyphenyl]cyclopropane-1,1-dicarboxamide] |
| 10 to 100 nM | 10 to 100 nM | CC(C)(C)n1cc(-c2ccc3c(Oc4ccc(NC(=O)C5(C(=O)Nc6ccc(F)cc6)CC5)cc4)ccnc3c2)cn1 [Compound 23, 1-N-[4-[7-(1-tert-Butylpyrazol-4-yl)quinolin-4-yl]oxyphenyl]-1-N′-(4-fluorophenyl)cyclopropane-1,1-dicarboxamide] |
| ≤ 10 nM | ≤ 10 nM | O=C(Nc1ccc(F)cc1)C1(C(=O)Nc2ccc(Oc3ccnc4cc(-c5cnn(CCF)c5)ccc34)cc2)CC1 [Compound 14, 1-N-[4-[7-[1-(2-Fluoroethyl)pyrazol-4-yl]quinolin-4-yl]oxyphenyl]-1-N′-(4-fluorophenyl)cyclopropane-1,1-dicarboxamide] |
| 10 to 100 nM | 10 to 100 nM | O=C(Nc1ccc(F)cc1)C1(C(=O)Nc2ccc(Oc3ccnc4cc(-c5cnn(CC(F)(F)F)c5)ccc34)cc2)CC1 [Compound 16, 1-N′-(4-Fluorophenyl)-1-N-[4-[7-[1-(2,2,2-trifluoroethyl)pyrazol-4-yl]quinolin-4-yl]oxyphenyl]cyclopropane-1,1-dicarboxamide] |
| 10 to 100 nM | ≤ 10 nM | Cn1ncc(-c2ccc3c(Oc4ccc(NC(=O)C5(C(=O)Nc6ccc(F)cc6)CC5)cc4)ccnc3c2)n1 [Compound 86, 1-N′-(4-Fluorophenyl)-1-N-[4-[7-(2-methyltriazol-4-yl)quinolin-4-yl]oxyphenyl]cyclopropane-1,1-dicarboxamide] |
